The source made the active and inactive calls. No cut-off for these calls is given here.
Key:
Mus musculus [1] = assay: Antiinflammatory activity in carrageenan-induced thrombosis in male BALB/c mouse model assessed as reduction in IL-6 level administered as oral dose by ELISA method; format: functional, organism-based; conditions: dose 10-30 mg/kg
Coagulation factor XII = target: T1, Coagulation factor XII (Homo sapiens, UniProt P00748); assay: Inhibition of FXIIa (unknown origin) using H-D-Pro-Phe-Arg-pNA as substrate incubated for 20 mins followed by substrate addition by spectrophotometric analysis
T1 sequence (P00748 whole entry): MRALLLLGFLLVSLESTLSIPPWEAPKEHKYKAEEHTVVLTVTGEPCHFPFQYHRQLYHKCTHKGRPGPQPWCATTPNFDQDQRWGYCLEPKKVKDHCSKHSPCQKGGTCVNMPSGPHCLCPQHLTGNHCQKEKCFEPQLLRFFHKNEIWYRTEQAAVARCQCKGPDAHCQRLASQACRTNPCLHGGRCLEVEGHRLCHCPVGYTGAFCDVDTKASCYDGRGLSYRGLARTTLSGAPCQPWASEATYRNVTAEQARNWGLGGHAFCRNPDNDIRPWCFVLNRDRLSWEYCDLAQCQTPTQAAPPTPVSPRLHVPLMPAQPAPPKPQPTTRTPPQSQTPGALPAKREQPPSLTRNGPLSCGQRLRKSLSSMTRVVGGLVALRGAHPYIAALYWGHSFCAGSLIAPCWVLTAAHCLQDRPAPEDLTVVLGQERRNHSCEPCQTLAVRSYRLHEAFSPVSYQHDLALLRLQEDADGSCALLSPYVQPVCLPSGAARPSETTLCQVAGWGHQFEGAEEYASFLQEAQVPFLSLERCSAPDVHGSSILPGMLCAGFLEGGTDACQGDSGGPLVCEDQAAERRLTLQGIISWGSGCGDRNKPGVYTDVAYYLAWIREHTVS

Plasma [2] = assay: Anticoagulant activity in human plasma assessed as prolongation of activated partial thromboplastin time incubated for 2 mins by aPTT reagent based assay; format: functional
Smooth muscle cell = assay: Ant-icalcification activity in human aortic Smooth muscle cell at 10 uM measured after 14 days with replacement of fresh medium for every 2 to 3 days by Alizarin red S staining based analysis; format: functional; conditions: time 14.0 day
Plasma [3] = assay: Anticoagulant activity in human plasma assessed as prolongation of […] time at 300 uM incubated for 2 mins by PT reagent based assay; format: functional, cell-free
Mus musculus [4] = assay: Antithrombotic activity in carrageenan induced thrombosis in male BALB/c mouse model assessed as inhibition of tail thrombosis at 20 to 30 mg/kg, IG preadministered with PBS for 7 days followed by carrageenan stimulation on day 7 and measured after 2 days post compound administration by H and E staining based analysis; format: functional, organism-based; conditions: dose 20-30 mg/kg, time 2.0 day
[5] = Toxicity in BALB/c mouse assessed as effect on UA level in serum at 60 to 100 mg/kg, po measured after 14 days; format: organism-based; conditions: in vivo, 336 h, dose 60-100 mg/kg, time 14 day
[6] = target: T2, Coagulation factor XII (Homo sapiens) (UniProt P00748); assay: Binding affinity to FXIIa (unknown origin) assessed as Kinact/Ki using H-D-Pro-Phe-Arg-pNA.2HCl as substrate by spectrophotometric analysis
T2 sequence (whole entry): T1 sequence (P00748 whole entry)

[7] = Toxicity in BALB/c mouse assessed as effect on UREA level in serum at 60 to 100 mg/kg, po measured after 14 days; format: organism-based; conditions: in vivo, 336 h, dose 60-100 mg/kg, time 14 day
[8] = Toxicity in BALB/c mouse assessed as effect on spleen at 60 to 100 mg/kg, po measured after 14 days by H and E staining based analysis; format: organism-based; conditions: in vivo, 336 h, dose 60-100 mg/kg, time 14 day
[9] = Tmax in BALB/c mouse at 5 mg/kg, po measured upto 24 hrs by LC-MS/MS analysis; format: ADME, organism-based; conditions: in vivo
[10] = Toxicity in BALB/c mouse assessed as effect on HBDH level in serum at 60 to 100 mg/kg, po measured after 14 days; format: organism-based; conditions: in vivo, 336 h, dose 60-100 mg/kg, time 14 day
[11] = Clearance in BALB/c mouse at 1 mg/kg, iv measured upto 24 hrs by LC-MS/MS analysis; format: ADME, organism-based; conditions: in vivo
[12] = Half life in BALB/c mouse at 5 mg/kg, po measured upto 24 hrs by LC-MS/MS analysis; format: ADME, organism-based; conditions: in vivo
[13] = Toxicity in BALB/c mouse assessed as prolongation of bleeding time at 60 mg/kg, po measured after 90 mins; format: organism-based; conditions: in vivo, 1.5 h
[14] = Apparent volume of distribution in BALB/c mouse at 1 mg/kg, iv measured upto 24 hrs by LC-MS/MS analysis; format: ADME, organism-based; conditions: in vivo, read-out: Vz
[15] = Toxicity in BALB/c mouse assessed as effect on heart at 60 to 100 mg/kg, po measured after 14 days by H and E staining based analysis; format: organism-based; conditions: in vivo, 336 h, dose 60-100 mg/kg, time 14 day
[16] = MRT (0 to infinity) in BALB/c mouse at 1 mg/kg, iv measured upto 24 hrs by LC-MS/MS analysis; format: ADME, organism-based; conditions: in vivo
[17] = target: T2, Coagulation factor XII (Homo sapiens); assay: Binding affinity to FXIIa (unknown origin) assessed as inactivation rate using H-D-Pro-Phe-Arg-pNA.2HCl as substrate by spectrophotometric analysis
[18] = Toxicity in BALB/c mouse assessed as effect on ALP level in serum at 60 to 100 mg/kg, po measured after 14 days; format: organism-based; conditions: in vivo, 336 h, dose 60-100 mg/kg, time 14 day
[19] = Toxicity in BALB/c mouse assessed as effect on lung at 60 to 100 mg/kg, po measured after 14 days by H and E staining based analysis; format: organism-based; conditions: in vivo, 336 h, dose 60-100 mg/kg, time 14 day
[20] = AUC (0 to infinity) in BALB/c mouse at 1 mg/kg, iv measured upto 24 hrs by LC-MS/MS analysis; format: ADME, organism-based; conditions: in vivo
[21] = Toxicity in BALB/c mouse assessed as effect on LDH level in serum at 60 to 100 mg/kg, po measured after 14 days; format: organism-based; conditions: in vivo, 336 h, dose 60-100 mg/kg, time 14 day
[22] = Toxicity in BALB/c mouse assessed as effect on AST level in serum at 60 to 100 mg/kg, po measured after 14 days; format: organism-based; conditions: in vivo, 336 h, dose 60-100 mg/kg, time 14 day
[23] = target: T2, Coagulation factor XII (Homo sapiens); assay: Covalent inhibition of FXIIa (unknown origin) at 20 to 40 nM measured after 10 mins; conditions: dose 20-40 nM
[24] = Toxicity in BALB/c mouse assessed as effect on ALT level in serum at 60 to 100 mg/kg, po measured after 14 days; format: organism-based; conditions: in vivo, 336 h, dose 60-100 mg/kg, time 14 day
Mus musculus [25] = assay: Antiinflammatory activity in carrageenan-induced thrombosis in male BALB/c mouse model assessed as reduction in IL-1 beta level at 10 to 30 mg/kg, po by ELISA method; format: functional, organism-based; conditions: dose 10-30 mg/kg
Mus musculus [26] = assay: Antiinflammatory activity in carrageenan-induced thrombosis in male BALB/c mouse model assessed as reduction in IL-6 level at 10 to 30 mg/kg, po by ELISA method; format: functional, organism-based; conditions: dose 10-30 mg/kg
[27] = Tmax in BALB/c mouse at 1 mg/kg, iv measured upto 24 hrs by LC-MS/MS analysis; format: ADME, organism-based; conditions: in vivo
[28] = Toxicity in BALB/c mouse assessed as effect on liver at 60 to 100 mg/kg, po measured after 14 days by H and E staining based analysis; format: organism-based; conditions: in vivo, 336 h, dose 60-100 mg/kg, time 14 day
[29] = Toxicity in BALB/c mouse assessed as effect on CREA level in serum at 60 to 100 mg/kg, po measured after 14 days; format: organism-based; conditions: in vivo, 336 h, dose 60-100 mg/kg, time 14 day

## CC(C)N1CCN(c2ccc(C(=O)n3nc(-c4ccccn4)nc3N)c3ccccc23)CC1
Mus musculus [1]
  Activity: Dose-Dependent Effect
Coagulation factor XII
  IC50: 37 nM
Plasma [2]
  EC1.5: 68 µM
Smooth muscle cell
  Activity: Active
Plasma [3]
  Activity: inactive
Mus musculus [4]
  Activity: Active

## CC(C)N1CCCN(c2ccc(C(=O)n3nc(-c4ccccn4)nc3N)c3ccccc23)CC1
[5]
  Activity: Non-Toxic
[6]
  K: 2.37 10^6/M/min
[7]
  Activity: Non-Toxic
[8]
  Activity: Non-Toxic
[9]
  Tmax: 1 h
[10]
  Activity: Non-Toxic
[11]
  CL: 1270 mL/min/kg
[12]
  half-life: 1.71 h
[13]
  Activity: Non-Toxic
[14]
  Vd: 105 L/kg
[15]
  Activity: Non-Toxic
[16]
  MRT inf: 1.58 h
Plasma [2]
  EC1.5: 37 µM
[17]
  Kinact: 0.027 min⁻¹
[18]
  Activity: Non-Toxic
[19]
  Activity: Non-Toxic
[20]
  AUC(0-inf): 13.3 ng·h/mL
[21]
  Activity: Non-Toxic
[22]
  Activity: Non-Toxic
[23]
  inhibition: Active
[24]
  Activity: Non-Toxic
Mus musculus [25]
  Activity: Active
Mus musculus [26]
  Activity: Active
[27]
  Tmax: 0.39 h
[28]
  Activity: Non-Toxic
Plasma [3]
  Activity: inactive
[29]
  Activity: Non-Toxic
Mus musculus [4]
  Activity: Active
